{
  "source": "patent US9701670B2",
  "about": "“Pyrazolyl-ureas as kinase inhibitors” (RESPIVERT LIMITED, priority 2013, dated 2017)",
  "key": {"[1]": {"test_system": "β-catenin in d-U937 cells", "assay": "(m) Accumulation of β catenin in d-U937 cells", "type": "cell-based, human", "summary_of_the_method": "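PMA-differentiated U937 macrophage-type cells (100 ng/mL, 48–72 hr) were exposed to test compound or vehicle for 18 hr, then fixed. β-catenin was measured by cell ELISA (HRP/TMB, OD450-655) and normalised to crystal violet OD595. Signals below 15% of the standard control were designated \"-ve\".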"}, "[2]": {"test_system": "71 receptors and 26 enzymes", "assay": "Diversity Profile (Cerep)", "type": "binding", "conditions": "300 nM", "method": "Studies were conducted by Cerep (Celle-Lévescault, France) to investigate the binding of the compound of Example 77 to a diverse selection of receptors and to investigate either the inhibition or activation of a selection of enzymes (the “Diversity Profile” comprising a total of 71 receptors and 26 enzymes)."}, "[3]": {"assay": "Pharmacokinetics and total colon tissue distribution in mice", "type": "in vivo, male C57BL/6 mice", "conditions": "male, Mouse, 5 mg/kg p.o.", "method": "Studies were conducted by Sai Life Sciences (Hinjewadi, Pune, India) to investigate the pharmacokinetics and total colon tissue distribution of the compound of Example 77 in male C57BL/6 mice following a single oral administration.\nA group of twenty one male mice were dosed with a suspension formulation (in peanut oil) of the compound of Example 77, at a dose of 5 mg/kg. Blood samples (approximately 60 μL) were collected from retro orbital plexus such that the samples were obtained at 1, 2, 4, 6, 8, 12 and 24 hr. The blood samples were collected from a set of three mice at each time point in labelled micro centrifuge tube containing K2EDTA as anticoagulant. Plasma samples were separated by centrifugation at 4000 rpm for 10 min of whole blood and stored below −70° C. until bioanalysis. After collection of blood sample, animals were humanely euthanized by carbon dioxide asphyxiation to collect total colon tissues. The colons were flushed with cold phosphate buffer saline (pH 7.4) to remove contents. The total colon tissues were homogenized with cold phosphate buffer saline (pH 7.4) of twice the weight of colon tissue and stored below −70° C. Total volume was three times the total colon tissue weights. All samples were processed for analysis by protein precipitation using acetonitrile and analyzed with developed LC-MS/MS method (LLOQ: 2.02 ng/mL in plasma and 1.01 ng/mL in colon tissue). Pharmacokinetic parameters were calculated using the non-compartmental analysis tool of Phoenix WinNonlin® software (version 6.3)."}, "[4]": {"test_system": "Salmonella typhimurium, strains TA98 and TA100", "assay": "Mutagenicity assessment (bacterial reverse mutation screen)", "type": "cell-based", "conditions": "TA98 and TA100, presence or absence of S-9 mix, up to 5000 μg/plate", "method": "Studies were conducted by Sequani (Ledbury, Herefordshire, UK) to assess the compound of Example 77 in vitro for its ability to induce mutations in two histidine dependent auxotrophic mutants of Salmonella typhimurium, strains TA98 and TA100.\nThe mutation screen was conducted using the plate incorporation method and was performed in both the presence and absence of S-9 mix (a liver post-mitochondrial fraction derived from the livers of Aroclor 1254 treated rats). The bacteria were exposed to the compound of Example 77 dissolved in dimethylsulphoxide, which solvent was also used as the negative control. The dose levels used were 0.32, 1.6, 8, 40, 200, 1000 or 5000 μg/plate."}, "[5]": {"target": "p38 MAPKα isoform (MAPK14) (Homo sapiens (Human), UniProt Q16539)", "sequence (Q16539 whole entry, canonical isoform)": "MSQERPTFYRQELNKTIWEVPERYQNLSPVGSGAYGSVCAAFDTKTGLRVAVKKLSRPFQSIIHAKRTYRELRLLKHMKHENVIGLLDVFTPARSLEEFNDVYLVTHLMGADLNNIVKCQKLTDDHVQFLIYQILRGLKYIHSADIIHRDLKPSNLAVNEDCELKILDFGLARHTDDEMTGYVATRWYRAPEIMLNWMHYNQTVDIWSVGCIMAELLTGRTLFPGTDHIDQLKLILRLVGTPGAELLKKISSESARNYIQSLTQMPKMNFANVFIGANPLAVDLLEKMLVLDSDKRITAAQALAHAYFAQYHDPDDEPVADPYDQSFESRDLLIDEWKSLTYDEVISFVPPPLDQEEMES", "assay": "p38 MAPKα enzyme inhibition (FRET, Z-LYTE), Method 2", "type": "biochemical", "conditions": "Method 2, different laboratory (Table 4a2)"}, "[6]": {"target": "B-Raf (Homo sapiens (Human), UniProt P15056)", "sequence (P15056 whole entry)": "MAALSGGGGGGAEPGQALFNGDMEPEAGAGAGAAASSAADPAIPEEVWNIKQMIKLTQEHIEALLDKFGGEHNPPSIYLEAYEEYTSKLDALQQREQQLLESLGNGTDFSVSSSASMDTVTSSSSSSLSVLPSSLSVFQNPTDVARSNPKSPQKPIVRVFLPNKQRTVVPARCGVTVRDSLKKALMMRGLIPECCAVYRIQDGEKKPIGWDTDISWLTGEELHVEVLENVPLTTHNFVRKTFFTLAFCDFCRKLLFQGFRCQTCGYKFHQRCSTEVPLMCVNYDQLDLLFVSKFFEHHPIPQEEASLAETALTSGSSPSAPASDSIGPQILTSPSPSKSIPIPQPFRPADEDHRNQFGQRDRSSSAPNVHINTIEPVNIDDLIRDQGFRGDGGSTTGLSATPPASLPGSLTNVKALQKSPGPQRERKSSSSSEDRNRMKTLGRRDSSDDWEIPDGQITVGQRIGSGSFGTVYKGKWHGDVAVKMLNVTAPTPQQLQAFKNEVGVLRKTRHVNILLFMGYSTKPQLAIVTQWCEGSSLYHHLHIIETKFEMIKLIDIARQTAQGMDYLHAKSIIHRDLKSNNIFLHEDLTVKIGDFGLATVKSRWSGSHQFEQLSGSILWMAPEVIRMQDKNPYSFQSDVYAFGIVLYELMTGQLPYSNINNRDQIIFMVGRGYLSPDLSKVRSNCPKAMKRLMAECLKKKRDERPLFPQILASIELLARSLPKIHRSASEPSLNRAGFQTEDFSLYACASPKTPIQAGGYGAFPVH", "assay": "Enzyme binding assay (Kinomescan)", "method": "The kinase enzyme binding activities of compounds disclosed herein were determined using a proprietary assay which measures active site-directed competition binding to an immobilized ligand (Fabian, M. A. et al., Nature Biotechnol., 2005, 23:329-336). These assays were conducted by DiscoverX (formerly Ambit; San Diego, Calif.). The percentage inhibition produced by incubation with a test compound is calculated relative to the non-inhibited control."}, "[7]": {"conditions": "C57BL/6, total colon tissue, po, Total colon"}},
  "data": [
    {"smiles": "C#Cc1cc(Nc2nccc(Oc3ccc(NC(=O)Nc4cc(C(C)(C)C)nn4-c4ccc(OC)cc4)c4ccccc34)n2)cc(C(=O)NCCN2CCOCC2)c1", "note": "[Example 77, 3-((4-((4-(3-(3-(tert-Butyl)-1-(4-methoxyphenyl)-1H-pyrazol-5-yl)ureido)-naphthalen-1-yl)oxy)pyrimidin-2-yl)amino)-5-ethynyl-N-(2-morpholinoethyl)benzamide]", "values": [
      {"measurement": "% β-catenin induction", "setting": "[1]; 1 μg/mL test compound", "value": 1, "unit": "%"},
      {"measurement": "% β-catenin induction", "setting": "[1]; 5 μg/mL test compound", "value": 0, "unit": "%"},
      {"measurement": "% β-catenin induction", "setting": "[1]; 10 μg/mL test compound", "value": "−8", "unit": "%"},
      {"measurement": "inhibition of the control specific binding in the receptor binding assays or enzyme assays", "setting": "[2]", "value": "less than 25%"},
      {"measurement": "AUC(0-inf)", "setting": "[3]; C57BL/6, po, Plasma", "value": 29, "unit": "ng·h/mL"},
      {"measurement": "AUC(0-t)", "setting": "[3]; C57BL/6, po, Plasma", "value": 22, "unit": "ng·h/mL"},
      {"measurement": "Cmax", "setting": "[3]; C57BL/6, po, Plasma", "value": 3.5, "unit": "ng/mL"},
      {"measurement": "Tmax", "setting": "[3]; C57BL/6, po, Plasma", "value": 1, "unit": "h"},
      {"measurement": "AUC(0-inf)", "setting": "[3]; [7]", "value": 9280, "unit": "ng·h/mL"},
      {"measurement": "AUC(0-t)", "setting": "[3]; [7]", "value": 7480, "unit": "ng·h/mL"},
      {"measurement": "Cmax", "setting": "[3]; [7]", "value": 1070, "unit": "ng/mL"},
      {"measurement": "Tmax", "setting": "[3]; [7]", "value": 4, "unit": "h"},
      {"measurement": "ability to induce mutations (revertant colonies)", "setting": "[4]", "value": "no dose-related or statistically significant increases in revertant colonies"},
      {"measurement": "IC50", "setting": "[5]", "value": 22, "unit": "nM"},
      {"measurement": "effect on the binding of the kinase B-Raf to its standard ligand", "setting": "[6]", "value": "did not have any effect"}
    ]}
  ]
}
